Patent publication US8461305B2, “L-fucose α1→6 specific lectin” (J-Oil Mills, Inc., priority 2008, dated 2013)

Columns and labels:
[1] = frontal affinity chromatography (FAC), association constant to PA sugar chains having other L-fucose; format: binding; conditions: for binding to non-L-fucose α1→6 sugar chain: FAC; for association constant Ka: 25 degrees C.
Experimental: The following section will describe a method of calculating an association constant by frontal affinity chromatography (FAC). This method is based on the following principle. […] Then, the elution front end (front) is observed immediately. When there is an affinity with lectin, the elution of the sugar chain is delayed.
The preparation of a lectin column used in the apparatus is performed in the method as described below. 1. Purified lectin is dissolved in 0.1 to 0.2M of NaHCO3 buffer solution (pH 8.3 to 8.5). 2. The lectin is immobilized, via a lectin primary amino group, a carrier such as NHS activated sepharose. 3. Then, the lectin is blocked by Tris buffer solution including primary amine or ethanolamine for example. 4. Lectin-sepharose is suspended in 10 mM Tris buffer, including 0.8% of NaCl (pH 7.4, TBS). Then, lectin immobilized resin is filled in a miniature column (φ2 mm×10 mm, 31.4 μl). 5. The miniature column in which the lectin immobilized resin is filled is protected by a holder and the lectin column is connected to an FAC automatic analysis apparatus (FAC-1, SHIMADZU CORPORATION).
Then, the elution of the PA sugar chain from the column is detected by a fluorescence detector (excitation wavelength/fluorescence wavelength: 310 nm/380 nm).
Based on the detection data, by using the elution front end (Vo) of the sugar chain (PA rhamnose) not interacting with lectin as a reference, the delay (V−Vo) of the elution front end (V) of a sugar chain interacting with lectin is calculated as an interaction strength. Then, based on the following FAC criteria expressions, the association constant (Ka) between the sugar chain and lectin is calculated based on V−Vo and Bt. If the interaction strength (V−Vo value) and the association constant are higher, a higher affinity is caused between lectin and an L-fucose α1→6 sugar chain.
[In the formula, A means substance used for the elution, Ao means the initial concentration of the substance A, B means a immobilized ligand, V means the elution volume, Vo means the elution front end volume of the substance not interacting with the immobilized ligand B at all, Bt means an effective ligand amount, Kd means a dissociation constant (an inverse of the association constant)].
Pyridylaminated (PA) sugar chains shown in FIG. 1 and FIG. 2 were used to frontal affinity chromatography (FAC) analysis. PA sugars were purchased from TAKARA BIO INC., SEIKAGAKU BIOBUSINESS CORPORATION, and Masuda Chemical Industries co., LTD. PA sugar were also obtained by pyridylaminating, by GlycoTAG®(TAKARA BIO INC.), an unlabeled sugar chain or a sugar chain obtained by subjecting a sugar chain to enzyme digestion for example.
Lectin was dissolved in 0.2 M NaHCO3 buffer solution (pH 8.3) including 0.5 M NaCl and coupled to the NHS-activated sepharose (GE Healthcare Bioscience) by following the manufacturer's instructions. Then, lectin immobilized sepharose was suspended in 10 mM Tris buffer (pH 7.4, TBS) including […] and the resultant matter was filled in a miniature column (φ2 mm×10 mm, 31.4 μl).
Frontal affinity chromatography was performed using FAC automatic analysis apparatus (FAC-1, SHIMADZU CORPORATION). In particular, the above-prepared lectin column was inserted to a stainless steel holder and the holder was connected to FAC-1 apparatus. The flow rate and the column temperature were maintained at 0.125 ml/min and 25 degrees C., respectively. After the miniature column was equilibrated by the TBS, an excessive volume (0.5 ml to 4 ml) of a PA sugar chain (3.75 nM or 7.5 nM) was continuously inputted to the column using an automatic sampling apparatus.
The fluorescent strength of the eluate of the PA sugar (excitation wavelength of 310 nm and fluorescence wavelength of 380 nm) was monitored to measure the interaction strength [a difference of the front end eluate to the standard oligosaccharide (PA rhamnose): V−V0]. […]

[2] = hemagglutinating inhibition test with sugars (sugar binding specificity); format: cell-based
Source text: The sugar binding specificity of lectin also can be confirmed by using erythrocytes that can be specifically agglutinated by the lectin to investigate the sugar type that may inhibit the agglutination of the erythrocytes and the concentration thereof.
Various monosaccharides, oligosaccharides, and polysaccharides shown in Table 2 and glycoproteins shown in Table 3 were subjected to hemagglutinating inhibition test to evaluate PTL of Example 1 and the SRL of Example 2 with regard to the sugar binding specificity.
On a 96 well U-bottom microtiter plate, double dilution series of 10 μl of monosaccharide, oligosaccharide, polysaccharide, and glycoprotein solutions were prepared. Then, lectin solution adjusted in advance to have titer 4 was added in an amount of 10 μl to the respective wells. Then, the plate was subjected to a still-standing at a room temperature for one hour for sensitization. Then, 10 μl of 4%-red blood cell suspension was added to the respective wells and the plate was further subjected to a still-standing at a room temperature for one hour. […] The lowest concentration showing the inhibition was assumed as the minimum inhibition concentration. The lower the minimum inhibition concentration is, the higher the specificity to lectin is.
For comparison, the sugar binding specificity was evaluated using the following commercially-available lectins: Comparison Example 1: AAL (SEIKAGAKU BIOBUSINESS CORPORATION—J-OIL MILLS, Inc.), Comparison Example 2: AOL (TOKYO CHEMICAL INDUSTRY CO., LTD.—Gekkeikan Sake Company, Ltd.), Comparison Example 3: LCA (SEIKAGAKU BIOBUSINESS CORPORATION—J-OIL MILLS, Inc.), and Comparison Example 4: PSA (SEIKAGAKU BIOBUSINESS CORPORATION—J-OIL MILLS, Inc.).

[3] = Sugar chain No. 728 (as listed in Table 5/12)

Substance	binding to non-L-fucose α1→6 sugar chain [1]	association constant Ka ([1]; Sugar chain No. 419) [M⁻¹]	association constant Ka ([1]; Sugar chain No. 420) [M⁻¹]	association constant Ka ([1]; Sugar chain No. 718) [M⁻¹]	association constant Ka ([1]; Sugar chain No. 719) [M⁻¹]	association constant Ka ([1]; Sugar chain No. 720) [M⁻¹]	association constant Ka ([1]; Sugar chain No. 721) [M⁻¹]	association constant Ka ([1]; Sugar chain No. 722) [M⁻¹]	association constant Ka ([1]; Sugar chain No. 723) [M⁻¹]	association constant Ka ([1]; Sugar chain No. 726) [M⁻¹]	association constant Ka ([1]; Sugar chain No. 727) [M⁻¹]	association constant Ka [1, 3] [M⁻¹]	association constant Ka ([1]; Sugar chain No. 729) [M⁻¹]	association constant Ka ([1]; Sugar chain No. 730) [M⁻¹]	association constant Ka ([1]; Sugar chain No. 731) [M⁻¹]	association constant Ka ([1]; Sugar chain No. 739) [M⁻¹]	association constant Ka ([1]; Sugar chain No. 909) [M⁻¹]	association constant Ka ([1]; Sugar chain No. 910) [M⁻¹]	association constant Ka ([1]; Sugar chain No. 931) [M⁻¹]	association constant Ka ([1]; Sugar chain No. 932) [M⁻¹]	also measured
Lepista sordida lectin [LSL, novel lectin purified from the mushroom Lepista sordida]	not detected at all	<1000	<1000	<1000	<1000	<1000	<1000	<1000	<1000	<1000	<1000	<1000	<1000	<1000	<1000	<1000	<1000	<1000	<1000	<1000	association constant Ka ([1]; Sugar chain No. 933): <1000 M⁻¹
Stropharia rugosoannulata lectin [SRL, novel L-fucose α1→6 specific lectin purified from the mushroom Stropharia rugosoannulata]	not bound	<1000	<1000	<1000	<1000	<1000	<1000	<1000	<1000	<1000	<1000	<1000	<1000	<1000	<1000	<1000	<1000	<1000	<1000	<1000	association constant Ka ([1]; Sugar chain No. 933): <1000 M⁻¹; minimum inhibition concentration of hemagglutination ([2]; inhibitor: Fructose): >100 mM; minimum inhibition concentration of hemagglutination ([2]; inhibitor: Galactose): >100 mM; minimum inhibition concentration of hemagglutination ([2]; inhibitor: Glucose): >100 mM; minimum inhibition concentration of hemagglutination ([2]; inhibitor: L-fucose): >100 mM; minimum inhibition concentration of hemagglutination ([2]; inhibitor: Lactose): >6 mM; minimum inhibition concentration of hemagglutination ([2]; inhibitor: Maltose): >100 mM; minimum inhibition concentration of hemagglutination ([2]; inhibitor: Mannose): >100 mM; minimum inhibition concentration of hemagglutination ([2]; inhibitor: Melibiose): >100 mM; minimum inhibition concentration of hemagglutination ([2]; inhibitor: Metyl α-mannoside): >100 mM; minimum inhibition concentration of hemagglutination ([2]; inhibitor: N-Acetylneuraminic acid): >100 mM; minimum inhibition concentration of hemagglutination ([2]; inhibitor: N-acetylgalactosamine): >100 mM; minimum inhibition concentration of hemagglutination ([2]; inhibitor: N-acetylglucosamine): >100 mM; minimum inhibition concentration of hemagglutination ([2]; inhibitor: N-glycolylneuraminic acid): >100 mM; minimum inhibition concentration of hemagglutination ([2]; inhibitor: Raffinose): >100 mM; minimum inhibition concentration of hemagglutination ([2]; inhibitor: Rhamnose): >100 mM; minimum inhibition concentration of hemagglutination ([2]; inhibitor: Serial lactose): >6 mM; minimum inhibition concentration of hemagglutination ([2]; inhibitor: Sucrose): >100 mM; minimum inhibition concentration of hemagglutination ([2]; inhibitor: Xylose): >100 mM
Naematoloma sublateritium lectin [NSL]	not detected at all	<1000	<1000	<1000	<1000	<1000	<1000	<1000	<1000	<1000	<1000	<1000	<1000	<1000	<1000	<1000	<1000	<1000	<1000	<1000	association constant Ka ([1]; Sugar chain No. 933): <1000 M⁻¹
